This is an account of results in PMC5146284, “Molecular imaging with engineered physiology” (Nature Communications, 2016).

The test system of data set [1] is TEV protease. The experiment in a line: Proteolytic cleavage by TEV protease (SDS-PAGE). In kind it is biochemical. Particulars: 10 µM sensor, 2 h, 37 °C. As for the experimental part:
(§1) Proteolytic cleavage reactions
(§2) Supplementary Fig. 4. Proteolytic cleavage of candidate sensors and assessment by bioas-say. (a-e) Cleavage reaction products after incubation of 10 µM sensor with or without enzyme for 2 h at 37 °C. (a) MALDI mass spectrum of sensor (1) after incubation with or without FAP […]
(§3) (b) SDS-PAGE analysis of sensor
(§4) (c) SDS-PAGE analysis of sensor (3) after incubation with different concentrations of EK light […]
(§5) (d) SDS-PAGE analysis of sen- […]
(§6) and liberation of free CGRP. (f-k) Dose-response curves of uncleaved and cleaved sensors in […]
(§7) (f) Dose-response curves for Sensors (2-4) at final assay concentrations up to 10 uM (addition of 10 µL of 100 µM solution to 90 µL medium per well in bioassay) show no receptor activation by uncleaved GFP-linker-CGRP-G sensors even at 10-fold higher concentrations than were used in cleavage assays (g-k). (g-k) Dose-response curves for reaction products from (a-e). Error bars in (f-k) denote SD of measurements performed in triplicate.
(§8) (1 picture or pasted object on this page, not shown here)

Data set [2] relates to enterokinase (EK) light chain. The experiment in a line: Proteolytic cleavage by enterokinase light chain (SDS-PAGE). Particulars: 10 µM sensor, 2 h, 37 °C, different EK concentrations. In kind it is biochemical. As for the experimental part: as §1, §2, §3, §4, §5, §6, §7, §8
Data set [3] relates to rat brain (thalamus). The experiment in a line: MRI of haemodynamic response to intracranial CGRP infusion. In kind it is in vivo, rat (Sprague-Dawley). Particulars: inferred from MRI time course during intracranial infusion. The source says:
Haemodynamic contrast provided sufficient resolution to monitor convective spread of the imaging agent from the site of infusion (Supplementary Fig. 1b).
Magnetic resonance imaging
Nineteen Sprague-Dawley rats were used for in vivo MRI experiments. […]
Animals were scanned by MRI to measure the changes in haemodynamic contrast following intracranial injections. […] Breathing rate and end-tidal expired isoflurane were continuously monitored. […]
Signals were averaged over six animals in 1.5 mm square regions of interest (ROIs) positioned around the infusion cannulae tips in each animal (cf. Fig. 2d); gray shading denotes standard errors as a function of time. (b) Time courses from multiple approximately concentric ROIs (diagrammed at left) were analyzed to determine whether hemodynamic MRI has sufficient spatial resolution to monitor convection of CGRP from the infusion site. For each ROI, the delay between the start of infusion and the ob-servation of statistically significant signal changes from baseline was measured (color coded bars at right). […]

On to “cfSGFP2-ENLYFQG-CGRP-G [Sensor (2), recombinant fusion of cysteine-free GFP, a short linker, TEV protease site and non-amidated CGRP]”, for which the “cleavage by TEV protease” value in data set [1] is “substantial but not complete cleavage”.

Turning to “cfSGFP2-DDDDK-CGRP-G [Sensor (3), recombinant fusion of cysteine-free GFP, a short linker, enterokinase site and non-amidated CGRP]”, in data set [2], the “cleavage by EK light chain” value was “increasing cleavage with increasing concentrations”.

Take `CC(C)C[C@H](NC(=O)CNC(=O)[C@H](C)NC(=O)[C@H](CC(C)C)NC(=O)[C@H](CCCNC(=N)N)NC(=O)[C@H](Cc1cnc[nH]1)NC(=O)[C@@H](NC(=O)[C@@H](NC(=O)[C@@H]1CSSC[C@H](NC(=O)[C@H](C)N)C(=O)N[C@@H](CC(=O)O)C(=O)N[C@@H]([C@@H](C)O)C(=O)N[C@@H](C)C(=O)N[C@@H]([C@@H](C)O)C(=O)N1)C(C)C)[C@@H](C)O)C(=O)N[C@@H](CC(C)C)C(=O)N[C@@H](CO)C(=O)N[C@@H](CCCNC(=N)N)C(=O)N[C@@H](CO)C(=O)NCC(=O)NCC(=O)N[C@H](C(=O)N[C@H](C(=O)N[C@@H](CCCCN)C(=O)N[C@@H](CC(N)=O)C(=O)N[C@@H](CC(N)=O)C(=O)N[C@@H](Cc1ccccc1)C(=O)N[C@H](C(=O)N1CCC[C@H]1C(=O)N[C@H](C(=O)N[C@@H](CC(N)=O)C(=O)N[C@H](C(=O)NCC(=O)N[C@@H](CO)C(=O)N[C@@H](CCCCN)C(=O)N[C@@H](C)C(=O)N[C@@H](Cc1ccccc1)C(N)=O)C(C)C)[C@@H](C)O)C(C)C)C(C)C)C(C)C` [wtCGRP, calcitonin gene-related peptide]: the “removal or degradation in brain tissue” value in data set [3] is listed as “not rapidly removed or degraded in brain tissue”.
